Legend:
[1] = target: T1, recombinant human CK2 (RRββ-holoenzyme) (Homo sapiens, UniProt P68400); assay: CK2 Kinase Assay (33P-ATP, substrate peptide RRRDDDSDDD); format: biochemical; conditions: final ATP 15 μM, 10 min at 30 °C; read-out: protein kinase CK2 IC50
T1 construct: purchased Millipore
Description: CK2 Kinase Assay was conducted using the protocol as described in Pierre F. et al.; J. Med. Chem. 2011, 54, 635-654. The tested compounds in aqueous solution were added at a volume of 10 μL to a reaction mixture comprising 10 μL of assay dilution buffer (ADB; 20 mM MOPS, pH 7.2, 25 mM β-glycerol phosphate, 5 mM EGTA, 1 mM sodium orthovanadate, and 1 mM dithiothreitol), 10 μL of substrate peptide (RRRDDDSDDD, dissolved in ADB at a concentration of 1mM), 10 μL of recombinant human CK2 (RRββ-holoenzyme, 25 ng dissolved in ADB; Millipore). Reactions were initiated by the addition of 10 μL of ATP solution (90% 75 mMMgCl2, 75 μM ATP (final ATP concentration:15 μM) dissolved in ADB; 10% [γ-33P] ATP (stock 1 mCi/100 μL; 3000 Ci/mmol (Perkin-Elmer) and maintained for 10 min at 30 ° C. The reactions were quenched with 100 μL of 0.75% phosphoric acid and then transferred to and filtered through a phosphor cellulose filter plate (Millipore). After washing each well five times with 0.75% phosphoric acid, the plate was dried under vacuum for 5 min and, following the addition of 15 μL of scintillation fluid to each well, the residual radioactivity was measured using a Wallac luminescence counter. The IC50 values were derived from eight concentrations of test inhibitors.

HL60 (leukemia) = assay: In vitro cytotoxic activity MTT assay, HL60; format: cell-based; conditions: Homo sapiens, HL-60, 96 hours exposure, read-out: IC50, concentration eliciting a 50% inhibition of cell proliferation
Description: (§1) Compounds 1-16 were screened for their in vitro cytotoxic activity utilizing a 3-(4,5-dimethyl-thiazol-2-yl)-2,5-diphenyltetrazolium bromide (MTT) assay against selected cancer human cell lines consisting of PC3 (prostate), HCT116 (colon), A375 (melanoma), H1299 (lung), MIAPaCa-2 (pancreas), HL60 (leukemia), MCF7 (breast), MDA-MB-231 (breast) (T. Mosmann, J. Immunol. Meth., 1983, 65, 55-63). The cells were cultured at 37° C. in RMPI1640 medium supplemented with 10% fetal bovine serum, 50 IU/mL penicillin, and 50 μg/mL streptomycin in a 5% CO2 incubator. All cells were sub-cultured 3 times/week by trypsinisation. Viable cells were seeded and allowed to adhere for 12 h before a test drug was added in 96-well plates at an initial density of 1.0×10^5 cells/mL. Tumour cell lines were separately exposed to various concentrations of the tested compounds followed by incubation at a temperature of 37° C. during 96 h inside a medium of fresh RMPI 1640. Cells were subsequently incubated at 37° C. using MTT at 0.5 mg/mL during 4 h. After removal of supernatant, formazan crystals were dissolved in isopropanol and the optical density was measured at 570 nm. CX-4945 was used as a positive control.

MDA-MB-231 (breast) = assay: In vitro cytotoxic activity MTT assay, MDA-MB-231; format: cell-based; conditions: Homo sapiens, 96 hours exposure, read-out: IC50, concentration eliciting a 50% inhibition of cell proliferation
Description: as §1

A375 (melanoma) = assay: In vitro cytotoxic activity MTT assay, A375; format: cell-based; conditions: Homo sapiens, A-375, 96 hours exposure, read-out: IC50, concentration eliciting a 50% inhibition of cell proliferation
Description: as §1

PC3 (prostate) = assay: In vitro cytotoxic activity MTT assay, PC3; format: cell-based; conditions: Homo sapiens, 96 hours exposure, read-out: IC50, concentration eliciting a 50% inhibition of cell proliferation
Description: as §1

MCF7 (breast) = assay: In vitro cytotoxic activity MTT assay, MCF7; format: cell-based; conditions: Homo sapiens, 96 hours exposure, read-out: IC50, concentration eliciting a 50% inhibition of cell proliferation
Description: as §1

MIAPaCa-2 (pancreas) = assay: In vitro cytotoxic activity MTT assay, MIAPaCa-2; format: cell-based; conditions: Homo sapiens, MIA PaCa-2, 96 hours exposure, read-out: IC50, concentration eliciting a 50% inhibition of cell proliferation
Description: as §1

H1299 (lung) = assay: In vitro cytotoxic activity MTT assay, H1299; format: cell-based; conditions: Homo sapiens, NCI-H1299, 96 hours exposure, read-out: IC50, concentration eliciting a 50% inhibition of cell proliferation
Description: as §1

HCT116 (colon) = assay: In vitro cytotoxic activity MTT assay, HCT116; format: cell-based; conditions: Homo sapiens, HCT-116, 96 hours exposure, read-out: IC50, concentration eliciting a 50% inhibition of cell proliferation
Description: as §1

T1 sequence (P68400 whole entry): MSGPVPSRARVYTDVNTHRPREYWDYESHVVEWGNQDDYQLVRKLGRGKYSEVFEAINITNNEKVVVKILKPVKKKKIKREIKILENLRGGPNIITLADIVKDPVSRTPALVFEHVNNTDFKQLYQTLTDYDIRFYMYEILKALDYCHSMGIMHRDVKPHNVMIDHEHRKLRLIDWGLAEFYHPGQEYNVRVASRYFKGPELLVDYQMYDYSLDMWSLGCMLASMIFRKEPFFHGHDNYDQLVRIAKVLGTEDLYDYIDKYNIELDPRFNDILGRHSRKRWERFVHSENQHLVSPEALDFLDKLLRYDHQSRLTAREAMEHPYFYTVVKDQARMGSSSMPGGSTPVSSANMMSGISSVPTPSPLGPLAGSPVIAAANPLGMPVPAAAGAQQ
T1 sequence (P67870 whole entry partner): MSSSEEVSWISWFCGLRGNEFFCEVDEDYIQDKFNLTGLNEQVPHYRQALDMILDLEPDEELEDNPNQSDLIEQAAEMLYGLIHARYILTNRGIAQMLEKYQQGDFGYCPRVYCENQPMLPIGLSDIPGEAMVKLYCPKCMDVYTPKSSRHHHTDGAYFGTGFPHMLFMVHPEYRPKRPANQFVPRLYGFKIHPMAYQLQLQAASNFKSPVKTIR

IC50 [1]: 26 nM
SMILES: O=C(O)c1cc2c(Nc3cccc(Cl)c3)nc3ccncc3c2[nH]1 [Compound 1, 4-((3-chlorophenyl)amino)-1H-pyrrolo[3,2-c][1,6]naphthyridine-2-carboxylic acid]
IC50 (HL60 (leukemia)): 2500 nM
IC50 (MDA-MB-231 (breast)): 3700 nM
IC50 (A375 (melanoma)): 2900 nM
IC50 (PC3 (prostate)): 2100 nM
IC50 (MCF7 (breast)): 4200 nM
IC50 (MIAPaCa-2 (pancreas)): 1100 nM
IC50 (H1299 (lung)): 1400 nM
IC50 (HCT116 (colon)): 1300 nM

Source: patent US11897883B1, “Pyrrolo[3,2-c][1,6]naphthyridine-2-carboxylic acid compounds as CK2 inhibitors” (KING FAISAL UNIVERSITY, priority 2023, dated 2024)
